Converted amounts (≈) assume the structure as drawn. Where two headings read alike, the source gives them in different places.
How the values were obtained:
Type in all cases: cell-based, E. coli
AW1045 = test: E-test susceptibility on LB agar, strain AW1045; design: unit not given here
WY100 blr::TnphoA = test: E-test susceptibility on LB agar, strain WY100 blr::TnphoA; design: unit not given here
S26 blr^+ = test: MIC for ampicillin, non-suppressor S26 host, blr^+; settings: plasmid None;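 also: MIC in µg per mL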
[1] = system: ASS111rif blr::TnphoA (=RW583); test: E-test susceptibility on LB agar, strain RW583 without or with plasmids; design: unit not given here
[2] = system: blr::TnphoA insertion mutant; test: Decline in optical density of growing cultures; settings: insertion mutant versus wild type
[3] = system: RW583 (ASS111rifblr::TnphoA); test: MIC for ampicillin, complementation in RW583; settings: Escherichia coli
S26su^+ blr::TnphoA = test: MIC for ampicillin, leuX amber suppressor host S26su^+, blr::TnphoA;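 also: MIC in µg per mL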
ASS11rif (blr^+) = test: MIC for ampicillin, complementation test, wild type host; settings: Escherichia coli
S26 blr::TnphoA = test: MIC for ampicillin, non-suppressor S26 host, blr::TnphoA;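 also: MIC in µg per mL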
AW1045 blr::TnphoA = test: E-test susceptibility on LB agar, strain AW1045 blr::TnphoA; design: unit not given here
S26su^+ blr^+ = test: MIC for ampicillin, leuX amber suppressor host S26su^+, blr^+; settings: plasmid None;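 also: MIC in µg per mL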
WY100 = test: E-test susceptibility on LB agar, strain WY100; design: unit not given here
RW583 = test: Antibiotic susceptibility of the blr::TnphoA insertion mutant compared with the parent; settings: for effect of the insertion on susceptibility: transconjugant RW583 (blr::TnphoA) versus parental strain
Description: Donor E. coli K 12 strain S17-1 λpir (Tp^rSm^rrecA, thi, pro, hsdR^−M^+RP4;2-Tc:Mu:KmTn7,λpir; George and Levy. 1983. J Bacteriol 1983 Aug; 155 (2): 531-48) containing a conjugatable transposon-delivery plasmid pUT/Km (able to replicate only in the donor) which bore mini-Tn5phoA (de Lorenzo, V. & Timmis, K. N. Meth. Enzymol. 235, 386-404 (1994)) was mated with recipient ASS111rif and plated on kanamycin/rifamycin. Transconjugant RW583 had both PhoA activity and a 2-4 fold enhanced susceptibility to a wide spectrum of antibiotics […] including cephalosporins and imipenem (Table 1) as well as cycloserine and bacitracin, while susceptibility to tetracycline, chloramphenicol, nalidixic acid, norfloxacin, gentamicin, fosfomycin or valinomycin was not affected. The insertion was transduced (Provence, D. L. & Curtiss, R. I. in Methods for General and Molecular Bacteriology (ed. Gerhardt, P., Murry, R. G. E., Wood, W. A. & Kreig, N. R.) 317-347 (American Society for Microbiology, Washington D.C. 1994)) by bacteriophage P1 into other E. coli K12 strains, where it had the same effect on susceptibility (Table 1).
The cloned 358 base pairs region restored the wild type phenotype to the hypersusceptible strain bearing blr::TnphoA, regardless of orientation with respect to the lac promoter (Table 1, pRW23C vs pRW23D). The HindIII/PstI fragment of pACYC 184 (carrying the tet promoter and part of the tet gent) was replaced by the HindIII/PstI fragment from pRW23D. […] Therefore the 358 base pairs region appeared to contain all the information needed for complementation.

[4] = RW58s + pRW23D (blr^+, 358 base pairs)
[5] = RW583 + pRW23A (blr^+, 680 base pairs)
[6] = RW583 + pRW23C (blr^+, 358 base pairs)
[7] = strain ASS111rif blr::TnphoA (=RW583), no plasmid
[8] = Blr::TnphoA, pL24tag1 (amber blr)
[9] = Blr::TnphoA, pL39tag3 (amber L39 blr)
[10] = blr::TnphoA, pRW23C (wild type blr)

Molecule: CC1(C)S[C@@H]2[C@H](NC(=O)[C@H](N)c3ccccc3)C(=O)N2[C@H]1C(=O)O [Ampicillin]
- susceptibility (E-test strip) (AW1045): 3
- susceptibility (E-test strip) (WY100 blr::TnphoA): 0.75
- MIC for ampicillin (S26 blr^+): 3.3 µg·mL
- susceptibility (E-test strip) [1, 4]: 2
- susceptibility (E-test strip) ([1]; RW583 + pACYC184 (vector)): 0.5
- susceptibility (E-test strip) [1, 5]: 3
- susceptibility (E-test strip) [1, 6]: 2
- susceptibility (E-test strip) ([1]; RW583 + pUC19Sp^R (vector)): 0.25
- susceptibility (E-test strip) [1, 7]: 0.5
- drug concentration required for decline in optical density of growing cultures [2]: lower drug concentration
- MIC ([3]; host RW583, plasmid None): 0.13 µg/mL (≈ 0.372 µM)
- MIC ([3]; host RW583, plasmid PQ13tag1 (amber Q13 blr)): 1.1 µg/mL (≈ 3.15 µM)
- MIC ([3]; host RW583, plasmid PV20tag1 (amber V20 blr)): 1.2 µg/mL (≈ 3.43 µM)
- MIC ([3]; host RW583, plasmid pL24tag1 (amber L24 blr)): 0.13 µg/mL (≈ 0.372 µM)
- MIC ([3]; host RW583, plasmid pRW23C (wild type blr)): 1.1 µg/mL (≈ 3.15 µM)
- MIC ([3]; host RW583, plasmid pUC19-Sp^R (none)): 0.09 µg/mL (≈ 0.258 µM)
- MIC for ampicillin (S26su^+ blr::TnphoA; [8]): 2.1 µg·mL
- MIC for ampicillin (S26su^+ blr::TnphoA; [9]): 0.2 µg·mL
- MIC for ampicillin (S26su^+ blr::TnphoA; [10]): 3.0 µg·mL
- MIC for ampicillin (S26su^+ blr::TnphoA; blr::TnphoA, pUC19-Sp^R (none)): 1.1 µg·mL
- MIC for ampicillin (S26su^+ blr::TnphoA; blr::TnphoA, plasmid None): 1.0 µg·mL
- MIC (ASS11rif (blr^+); host ASS11rif blr^+, plasmid pRW23C (wild type blr), read-out: MIC for ampicillin): 1 µg/mL (≈ 2.86 µM)
- MIC (ASS11rif (blr^+); read-out: MIC for ampicillin, host ASS11rif blr^+, plasmid None): 1.1 µg/mL (≈ 3.15 µM)
- MIC for ampicillin (S26 blr::TnphoA; [8]): 0.9 µg·mL
- MIC for ampicillin (S26 blr::TnphoA; [9]): 0.2 µg·mL
- MIC for ampicillin (S26 blr::TnphoA; [10]): 2.8 µg·mL
- MIC for ampicillin (S26 blr::TnphoA; blr::TnphoA, pUC19-Sp^R (none)): 0.5 µg·mL
- MIC for ampicillin (S26 blr::TnphoA; blr::TnphoA, plasmid None): 0.5 µg·mL
- susceptibility (E-test strip) (AW1045 blr::TnphoA): 0.75
- MIC for ampicillin (S26su^+ blr^+): 3.5 µg·mL
- susceptibility (E-test strip) (WY100): 3
- restoration of resistance by plasmid (RW583; blr::TnphoA strain with pRWA7 (no vector-derived promoter for blr)): completely restored resistance

Molecule: C[C@@H](O)[C@H]1C(=O)N2C(C(=O)O)=C(SCCN=CN)C[C@H]12 [Imipene, imipenem]
- susceptibility (E-test strip) (AW1045): 0.38
- susceptibility (E-test strip) (WY100 blr::TnphoA): 0.125
- susceptibility (E-test strip) [1, 4]: 0.25
- susceptibility (E-test strip) ([1]; RW583 + pACYC184 (vector)): 0.19
- susceptibility (E-test strip) [1, 5]: 0.38
- susceptibility (E-test strip) [1, 6]: 0.19
- susceptibility (E-test strip) ([1]; RW583 + pUC19Sp^R (vector)): 0.125
- susceptibility (E-test strip) [1, 7]: 0.19
- susceptibility (E-test strip) (AW1045 blr::TnphoA): 0.125
- susceptibility (E-test strip) (WY100): 0.25

Molecule: gentamicin
- effect of the insertion on susceptibility (RW583): not affected

Molecule: CCn1cc(C(=O)O)c(=O)c2ccc(C)nc21 [nalidixic acid]
- effect of the insertion on susceptibility (RW583): not affected

Molecule: CCN1CCN(C(=O)N[C@@H](C(=O)N[C@@H]2C(=O)N3[C@@H]2SC(C)(C)[C@@H]3C(=O)O)c2ccccc2)C(=O)C1=O [Pipericillin]
- susceptibility (E-test strip) (AW1045): 1.0
- susceptibility (E-test strip) (WY100 blr::TnphoA): 0.75
- susceptibility (E-test strip) [1, 4]: 1.0
- susceptibility (E-test strip) ([1]; RW583 + pACYC184 (vector)): 0.25
- susceptibility (E-test strip) [1, 5]: 1.5
- susceptibility (E-test strip) [1, 6]: 1.0
- susceptibility (E-test strip) ([1]; RW583 + pUC19Sp^R (vector)): 1.25
- susceptibility (E-test strip) [1, 7]: 0.25
- susceptibility (E-test strip) (AW1045 blr::TnphoA): 0.25
- susceptibility (E-test strip) (WY100): 1.5

Molecule: CO[C@@]1(NC(=O)Cc2cccs2)C(=O)N2C(C(=O)O)=C(COC(N)=O)CS[C@@H]21 [Cefoxitin]
- susceptibility (E-test strip) (AW1045): 3
- susceptibility (E-test strip) (WY100 blr::TnphoA): 1.5
- susceptibility (E-test strip) [1, 4]: 1.5
- susceptibility (E-test strip) ([1]; RW583 + pACYC184 (vector)): 0.75
- susceptibility (E-test strip) [1, 5]: 2
- susceptibility (E-test strip) [1, 6]: 1.5
- susceptibility (E-test strip) ([1]; RW583 + pUC19Sp^R (vector)): 0.75
- susceptibility (E-test strip) [1, 7]: 1.0
- susceptibility (E-test strip) (AW1045 blr::TnphoA): 1.5
- susceptibility (E-test strip) (WY100): 3

Molecule: C[C@@H]1O[C@@H]1P(=O)(O)O [fosfomycin]
- effect of the insertion on susceptibility (RW583): not affected

Molecule: CO/N=C(\C(=O)N[C@@H]1C(=O)N2C(C(=O)[O-])=C(C[N+]3(C)CCCC3)CS[C@H]12)c1csc(N)n1 [Cefepime]
- susceptibility (E-test strip) (AW1045): 0.023
- susceptibility (E-test strip) (WY100 blr::TnphoA): <0.016
- susceptibility (E-test strip) [1, 4]: 0.023
- susceptibility (E-test strip) ([1]; RW583 + pACYC184 (vector)): <0.016
- susceptibility (E-test strip) [1, 5]: 0.032
- susceptibility (E-test strip) [1, 6]: 0.023
- susceptibility (E-test strip) ([1]; RW583 + pUC19Sp^R (vector)): <0.016
- susceptibility (E-test strip) [1, 7]: <0.016
- susceptibility (E-test strip) (AW1045 blr::TnphoA): <0.016
- susceptibility (E-test strip) (WY100): 0.047

Molecule: CCn1cc(C(=O)O)c(=O)c2cc(F)c(N3CCNCC3)cc21 [norfloxacin]
- effect of the insertion on susceptibility (RW583): not affected

Molecule: CO/N=C(\C(=O)N[C@@H]1C(=O)N2C(C(=O)O)=C(CSc3nc(=O)c(=O)[nH]n3C)CS[C@H]12)c1csc(N)n1 [Ceftriaxone]
- susceptibility (E-test strip) (AW1045): 0.032
- susceptibility (E-test strip) (WY100 blr::TnphoA): 0.32
- susceptibility (E-test strip) [1, 4]: 0.016
- susceptibility (E-test strip) ([1]; RW583 + pACYC184 (vector)): <0.016
- susceptibility (E-test strip) [1, 5]: 0.023
- susceptibility (E-test strip) [1, 6]: 0.016
- susceptibility (E-test strip) ([1]; RW583 + pUC19Sp^R (vector)): <0.016
- susceptibility (E-test strip) [1, 7]: <0.016
- susceptibility (E-test strip) (AW1045 blr::TnphoA): <0.016
- susceptibility (E-test strip) (WY100): 0.125

Molecule: O=C(N[C@H](CO)[C@H](O)c1ccc([N+](=O)[O-])cc1)C(Cl)Cl [chloramphenicol]
- effect of the insertion on susceptibility (RW583): not affected

Molecule: CC(C)[C@@H]1NC(=O)[C@H](C)OC(=O)[C@@H](C(C)C)NC(=O)[C@@H](C(C)C)OC(=O)[C@H](C(C)C)NC(=O)[C@H](C)OC(=O)[C@@H](C(C)C)NC(=O)[C@@H](C(C)C)OC(=O)[C@H](C(C)C)NC(=O)[C@H](C)OC(=O)[C@@H](C(C)C)NC(=O)[C@@H](C(C)C)OC1=O [valinomycin]
- effect of the insertion on susceptibility (RW583): not affected

Reference: patent US20020051982A1, “Novel BLR molecules affecting antibiotic susceptibility” (priority 2000, published 2002)
